In patent US20060189683A1, “Parenteral formulation of mycophenolic acid, a salt or prodrug thereof” (priority 2003, published 2006):

Assay: Plasma levels of MPA after intravenous continuous infusion in stable renal transplant patients
Assay type: in vivo, human
Conditions: 12 stable renal transplant patients
Description: 12 ml of the solution of example 2 is given to 12 stable renal transplant patients as an intravenous continuous infusion into an arm vein over 30 min with a constant infusion rate of 0.4 ml/min.
Blood samples are taken for 36 h after dosing at the following time points: 0, 10 min, 20 min, 30 min, 45 min, 1.0 h, 1.5 h, 2.0 h, 4.0 h, 8.0 h, 12.0 h, 24.0 h, 36.0 h from the onset of infusion.

interpatient variability for AUC0-t (12 ml of solution of example 2, i.v. infusion over 30 min): less than 25%
half-life (human, iv, 12 ml of the solution of example 2, 12 ml of solution of example 2, i.v. infusion over 30 min, read-out: Mean t1/2 (converted)): 9.68 h
AUC(0-t) (human, iv, 12 ml of the solution of example 2, 12 ml of solution of example 2, i.v. infusion over 30 min, sampling for 36 h, read-out: Mean MPA AUC0-t): 42100 ng·h/mL
SMILES: COc1c(C)c2c(c(O)c1C/C=C(\C)CCC(=O)O)C(=O)OC2 [MPA, Mycophenolic acid]
